Test results reported in the supplement of paper PMC10307832.

Legend:
Test in all cases: relative viability (nuclei count vs DMSO), 5 days (fraction); higher = more cells survive
SGI-1776 + Tozasertib = compound: CN1CCC(CNc2ccc3ncc(-c4cccc(OC(F)(F)F)c4)n3n2)CC1 [SGI-1776] + Cc1cc(Nc2cc(N3CCN(C)CC3)nc(Sc3ccc(NC(=O)C4CC4)cc3)n2)n[nH]1 [Tozasertib] (partner 0.1 µM)
In short: (§1)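 After 5 days of treatment, lung cancer cells in 1536-well plates were fixed and stained in a single step (final 0.05% Triton X-100, 1% formaldehyde, 1 ug/ml Hoechst) and their nuclei counted on 4× images. Treatment had been applied by pin tool the day after seeding as one drug alone or as a fixed anchor-drug dose with five library-drug doses (not always all listed) in √10 steps. Relative viability is the nuclei count of treated wells divided by that of vehicle wells, and values are medians of duplicate plates.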

Entinostat + Palbociclib = compound: Nc1ccccc1NC(=O)c1ccc(CNC(=O)OCc2cccnc2)cc1 [Entinostat] + CC(=O)c1c(C)c2cnc(Nc3ccc(N4CCNCC4)cn3)nc2n(C2CCCC2)c1=O [Palbociclib] (partner 0.5 µM)
In short: as §1

Entinostat + Alpelisib = compound: Nc1ccccc1NC(=O)c1ccc(CNC(=O)OCc2cccnc2)cc1 [Entinostat] + Cc1nc(NC(=O)N2CCC[C@H]2C(N)=O)sc1-c1ccnc(C(C)(C)C(F)(F)F)c1 [Alpelisib] (partner 2 µM)
In short: as §1

Entinostat + Decitabine = compound: Nc1ccccc1NC(=O)c1ccc(CNC(=O)OCc2cccnc2)cc1 [Entinostat] + Nc1ncn([C@H]2C[C@H](O)[C@@H](CO)O2)c(=O)n1 [Decitabine] (partner 2 µM)
In short: as §1

What does the source list for HOP-62?
relative viability (SGI-1776 + Tozasertib; first compound 0.08 µM): 0.397; relative viability (SGI-1776 + Tozasertib; first compound 0.8 µM): 0.323; relative viability (SGI-1776 + Tozasertib; first compound 2.53 µM): 0.241; relative viability (SGI-1776 + Tozasertib; first compound 8 µM): 0.251; relative viability (Entinostat + Palbociclib; first compound 0.02 µM): 0.409; relative viability (Entinostat + Palbociclib; first compound 0.06325 µM): 0.44; relative viability (Entinostat + Palbociclib; first compound 0.2 µM): 0.45; relative viability (Entinostat + Palbociclib; first compound 0.6325 µM): 0.195; relative viability (Entinostat + Palbociclib; first compound 2 µM): 0.162; relative viability (Entinostat + Alpelisib; first compound 0.02 µM): 1.02; relative viability (Entinostat + Alpelisib; first compound 0.06325 µM): 0.9; relative viability (Entinostat + Alpelisib; first compound 0.2 µM): 0.929; relative viability (Entinostat + Alpelisib; first compound 0.6325 µM): 0.599; relative viability (Entinostat + Alpelisib; first compound 2 µM): 0.348; relative viability (Entinostat + Decitabine; first compound 0.02 µM): 0.272; relative viability (Entinostat + Decitabine; first compound 0.06325 µM): 0.248; relative viability (Entinostat + Decitabine; first compound 0.2 µM): 0.248; relative viability (Entinostat + Decitabine; first compound 0.6325 µM): 0.213; relative viability (Entinostat + Decitabine; first compound 2 µM): 0.132

With NCI-H2126 as the cell line, how does the relative viability (SGI-1776 + Tozasertib; first compound 0.08 µM) read?
The relative viability was 0.926.

And the relative viability (SGI-1776 + Tozasertib; first compound 0.8 µM)?
Its relative viability is 0.607.

And the relative viability (SGI-1776 + Tozasertib; first compound 2.53 µM)?
The relative viability was 0.553.

And the relative viability (SGI-1776 + Tozasertib; first compound 8 µM)?
Its relative viability is 0.239.

What about the relative viability (Entinostat + Palbociclib; first compound 0.02 µM) of the same cell line?
Its relative viability is 0.316.

What about the relative viability (Entinostat + Palbociclib; first compound 0.06325 µM) of the same cell line?
Its relative viability is 0.317.

And the relative viability (Entinostat + Palbociclib; first compound 0.2 µM)?
Its relative viability is 0.351.

And the relative viability (Entinostat + Palbociclib; first compound 0.6325 µM)?
The relative viability was 0.321.

And the relative viability (Entinostat + Palbociclib; first compound 2 µM)?
Its relative viability is 0.334.

And the relative viability (Entinostat + Alpelisib; first compound 0.02 µM)?
The relative viability was 0.738.

What about the relative viability (Entinostat + Alpelisib; first compound 0.06325 µM) of the same cell line?
The relative viability was 0.708.

What about the relative viability (Entinostat + Alpelisib; first compound 0.2 µM) of the same cell line?
Its relative viability is 0.614.

What about the relative viability (Entinostat + Alpelisib; first compound 0.6325 µM) of the same cell line?
The relative viability was 0.46.

And the relative viability (Entinostat + Alpelisib; first compound 2 µM)?
Its relative viability is 0.317.

What about the relative viability (Entinostat + Decitabine; first compound 0.02 µM) of the same cell line?
The relative viability was 0.557.

And the relative viability (Entinostat + Decitabine; first compound 0.06325 µM)?
Its relative viability is 0.53.

And the relative viability (Entinostat + Decitabine; first compound 0.2 µM)?
The relative viability was 0.57.

What about the relative viability (Entinostat + Decitabine; first compound 0.6325 µM) of the same cell line?
The relative viability was 0.418.

And the relative viability (Entinostat + Decitabine; first compound 2 µM)?
The relative viability was 0.346.

What does the source list for NCI-H1793?
relative viability (SGI-1776 + Tozasertib; first compound 0.08 µM): 0.335; relative viability (SGI-1776 + Tozasertib; first compound 0.8 µM): 0.248; relative viability (SGI-1776 + Tozasertib; first compound 2.53 µM): 0.252; relative viability (SGI-1776 + Tozasertib; first compound 8 µM): 0.22; relative viability (Entinostat + Palbociclib; first compound 0.02 µM): 0.329; relative viability (Entinostat + Palbociclib; first compound 0.06325 µM): 0.321; relative viability (Entinostat + Palbociclib; first compound 0.2 µM): 0.263; relative viability (Entinostat + Palbociclib; first compound 0.6325 µM): 0.248; relative viability (Entinostat + Palbociclib; first compound 2 µM): 0.189; relative viability (Entinostat + Alpelisib; first compound 0.02 µM): 0.584; relative viability (Entinostat + Alpelisib; first compound 0.06325 µM): 0.79; relative viability (Entinostat + Alpelisib; first compound 0.2 µM): 0.583; relative viability (Entinostat + Alpelisib; first compound 0.6325 µM): 0.621; relative viability (Entinostat + Alpelisib; first compound 2 µM): 0.388; relative viability (Entinostat + Decitabine; first compound 0.02 µM): 0.519; relative viability (Entinostat + Decitabine; first compound 0.06325 µM): 0.56; relative viability (Entinostat + Decitabine; first compound 0.2 µM): 0.383; relative viability (Entinostat + Decitabine; first compound 0.6325 µM): 0.256; relative viability (Entinostat + Decitabine; first compound 2 µM): 0.253

How did the relative viability (SGI-1776 + Tozasertib; first compound 0.08 µM) turn out when RERF-LC-KJ was run?
Its relative viability is 0.473.

What about the relative viability (SGI-1776 + Tozasertib; first compound 0.8 µM) of the same cell line?
The relative viability was 0.412.

And the relative viability (SGI-1776 + Tozasertib; first compound 2.53 µM)?
Its relative viability is 0.235.

What about the relative viability (SGI-1776 + Tozasertib; first compound 8 µM) of the same cell line?
Its relative viability is 0.225.

And the relative viability (Entinostat + Palbociclib; first compound 0.02 µM)?
The relative viability was 1.06.

And the relative viability (Entinostat + Palbociclib; first compound 0.06325 µM)?
The relative viability was 1.09.

And the relative viability (Entinostat + Palbociclib; first compound 0.2 µM)?
The relative viability was 1.

What about the relative viability (Entinostat + Palbociclib; first compound 0.6325 µM) of the same cell line?
Its relative viability is 0.584.

And the relative viability (Entinostat + Palbociclib; first compound 2 µM)?
The relative viability was 0.278.

What about the relative viability (Entinostat + Alpelisib; first compound 0.02 µM) of the same cell line?
The relative viability was 0.846.

What about the relative viability (Entinostat + Alpelisib; first compound 0.06325 µM) of the same cell line?
Its relative viability is 0.704.

And the relative viability (Entinostat + Alpelisib; first compound 0.2 µM)?
The relative viability was 0.866.

What about the relative viability (Entinostat + Alpelisib; first compound 0.6325 µM) of the same cell line?
The relative viability was 0.647.

And the relative viability (Entinostat + Alpelisib; first compound 2 µM)?
The relative viability was 0.427.

What about the relative viability (Entinostat + Decitabine; first compound 0.02 µM) of the same cell line?
The relative viability was 0.712.

And the relative viability (Entinostat + Decitabine; first compound 0.06325 µM)?
The relative viability was 0.685.

And the relative viability (Entinostat + Decitabine; first compound 0.2 µM)?
The relative viability was 0.663.

And the relative viability (Entinostat + Decitabine; first compound 0.6325 µM)?
Its relative viability is 0.369.

And the relative viability (Entinostat + Decitabine; first compound 2 µM)?
Its relative viability is 0.285.
